{
  "source": "patent EP4567037A1",
  "about": "“USE OF PYRROLOPYRIMIDINE COMPOUND IN TREATMENT OF ACUTE GRAFT VERSUS HOST DISEASE” (Chia Tai Tianqing Pharmaceutical Group Co., Ltd., priority 2022, dated 2024)",
  "tested_on": "glucocorticoid-resistant acute graft-versus-host disease",
  "experiment": "Clinical study of tablets of the compound of formula II in subjects with glucocorticoid-resistant acute graft-versus-host disease",
  "type": "in vivo",
  "method": "This study was conducted to evaluate the safety and preliminary efficacy of the compound of formula II for treating acute graft-versus-host disease in a subject resistant to glucocorticoid.\nAdministration method: orally administered twice a day at fasting, at a dose of 10 mg or 15 mg each time, with 28 consecutive days of administration as one treatment cycle.\nDrug: the compound of formula I in 5 mg or 20 mg tablets, with the compound of formula I being shown as its stereoisomer, a compound of formula II: [drawing 4]\n• 1) Aged 12-75 years (inclusive), with no gender restriction; • 2) Previously received allogeneic hematopoietic stem cell transplantation (including non-myeloablative, myeloablative, and reduced-intensity conditioning transplantation of bone marrow, peripheral blood stem cells, and umbilical cord blood); • 3) Clinically diagnosed with aGVHD of grade II to grade IV according to MAGIC guidelines; • Resistance to glucocorticoid therapy *, defined as resistance to high-dose systemic glucocorticoid (methylprednisolone at a dose of 1-2 mg/kg/day or prednisone at an equivalent dose of 1.25-2.5 mg/kg/day), taken alone or taken in combination with a calcineurin inhibitor (CNI); • * Subjects meeting any one of the following conditions can be defined as resistant to conventional glucocorticoid therapy, i.e., therapy with methylprednisolone at a dose of ≥ 1 mg/kg/day or therapy with another type of glucocorticoid at an equivalent dose: (1) progression of aGVHD after the glucocorticoid therapy has been administered for 3 days, (2) no amelioration in aGVHD after the glucocorticoid therapy has been administered for 5 days, and (3) incomplete response of aGVHD after the glucocorticoid therapy has been administered for 14 days; • 4) Within 48 h before the start of therapy, neutrophil count (ANC) > 1 × 10^9/L, and platelet count (PLT) ≥ 20×10^9/L; and • 5) Subjects with voluntary participation, signed informed consent, and good compliance.\nDuring the study, the investigator scored aGVHD treatment responses according to Harris 2016 response evaluation criteria.\nThe evaluation index may be selected from the group consisting of: • Objective response rate (ORR): refers to the percentage of subjects in complete response (CR) or very good partial response (VGPR) or partial response (PR). • Complete response (CR) rate: refers to the percentage of subjects in complete response (CR). • Overall survival (OS): refers to the time from the start of the first administration to death due to any cause. • Duration of response (DOR): for subjects in complete response (CR) or very good partial response (VGPR) or partial response (PR) on day 28, DOR is defined as the time from the date of the first recorded response to the date of the first recorded disease progression or the start of any new systemic therapy for aGVHD. • Event-free survival (EFS): defined as the time from the date of the first administration to the date of relapse/progression of hematologic disease, transplantation failure, or death due to any cause. • Non-relapse mortality (NRM): defined as the time from the date of the first administration to the date of death not related to relapse/progression of hematologic disease. • Incidence of malignancy relapse/progression (MR): defined as the time from the date of the first administration to the date of relapse/progression of hematologic disease.\nTwelve evaluable subjects orally took tablets of the compound of formula II twice a day at fasting, at a dose of 10 mg each time, with 28 days as one administration cycle. The ORR of the 12 subjects on D28 was 83.3% (10/12), with 8 achieving CR and 2 achieving VGPR (very good partial response). […] Evaluation of efficacy in patients",
  "key": {"[1]": {"details": "D28, of 12 evaluable subjects, 10 mg twice a day"}},
  "data": [
    {"smiles": "N#CC[C@H](C1CCCC1)n1cc(-c2ncnc3[nH]ccc23)c(N)n1", "note": "[compound of formula II]", "values": [
      {"measurement": "Tolerability and safety", "setting": "10 mg twice a day, oral tablets, overall adverse events being controllable", "value": "good tolerability and safety"},
      {"measurement": "ORR on D28", "setting": "12 evaluable subjects, oral, twice a day at fasting, 10 mg each time, 28-day cycle, Harris 2016 response criteria", "value": 83.3, "unit": "%"},
      {"measurement": "ORR on D28 (responders/evaluable subjects)", "setting": "12 evaluable subjects, oral, twice a day, 10 mg each time, 28-day cycle", "value": "10/12"},
      {"measurement": "Number of subjects achieving CR", "setting": "[1]", "value": 8},
      {"measurement": "Number of subjects achieving VGPR (very good partial response)", "setting": "[1]", "value": 2},
      {"measurement": "Number of patients achieving ORR on D28", "setting": "subgroup aGVHD Grade II (6 patients)", "value": 6},
      {"measurement": "Number of patients achieving ORR on D28", "setting": "subgroup aGVHD Grade III (6 patients)", "value": 4},
      {"measurement": "Number of patients achieving ORR on D28", "setting": "subgroup organ affected by aGVHD: Liver (5 patients)", "value": 3},
      {"measurement": "Number of patients achieving ORR on D28", "setting": "subgroup organ affected by aGVHD: Lower digestive tract (5 patients)", "value": 4},
      {"measurement": "Number of patients achieving ORR on D28", "setting": "subgroup organ affected by aGVHD: Skin (8 patients)", "value": 8},
      {"measurement": "Number of patients achieving ORR on D28", "setting": "subgroup organ affected by aGVHD: Upper digestive tract (2 patients)", "value": 2},
      {"measurement": "Number of patients achieving ORR on D28", "setting": "subgroup previous therapy Hormone + CD25 monoclonal antibody (1 patient)", "value": 0},
      {"measurement": "Number of patients achieving ORR on D28", "setting": "subgroup previous therapy Hormone + CNI + MMF (6 patients)", "value": 5},
      {"measurement": "Number of patients achieving ORR on D28", "setting": "subgroup previous therapy Hormone + MTX + CNI + MMF (1 patient)", "value": 1},
      {"measurement": "Number of patients achieving ORR on D28", "setting": "subgroup previous therapy Hormone ± CNI (4 patients)", "value": 4}
    ]}
  ]
}
